These results are taken from US20260297042A1, “BIARYLAMIDE DERIVATIVES AND THEIR USE AS PKMYT1 INHIBITORS” (CANCER RESEARCH TECHNOLOGY LIMITED, priority 2023, published 2026).

Each structure is given as a SMILES string. pIC50: −log10 of the molar value.

The target of one experiment is T1, Human PKMYT1 (Homo sapiens, UniProt Q99640).
T1 construct: Human PKMYT1 75-362 was cloned as a TEV cleavable 6xHis fusion; 6xHis (TEV cleavable) (cleaved yes); made in house; host or cells: bacterial cells
T1 sequence (Q99640 75-362): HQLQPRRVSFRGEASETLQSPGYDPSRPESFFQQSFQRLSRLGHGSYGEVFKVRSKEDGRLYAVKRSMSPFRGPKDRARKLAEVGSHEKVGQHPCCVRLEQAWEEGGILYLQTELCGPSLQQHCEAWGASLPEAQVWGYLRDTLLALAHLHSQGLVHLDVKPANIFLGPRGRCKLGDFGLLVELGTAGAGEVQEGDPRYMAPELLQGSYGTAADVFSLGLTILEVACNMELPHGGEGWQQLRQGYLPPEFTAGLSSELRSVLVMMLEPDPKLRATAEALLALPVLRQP
Nature of the experiment: PKMYT1 biochemical ADP-Glo enzymatic assay. Summed up: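 Compounds were titrated over 10 points (3-fold steps), then 15 nM purified PKMYT1 kinase domain (aa 75-362) and 500 µM ATP were added in pH 7.5 HEPES buffer. After 60 min at 26 °C, remaining ATP was depleted and ADP converted to luminescence for IC50 fitting.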

The next experiment deals with T2, WEE1 (Homo sapiens, UniProt P30291).
T2 construct: purchased Thermo Fisher PR7373A
The experiment in a line: Selectivity versus WEE1 assay (ADP-Glo enzymatic assay). Type of experiment: biochemical. The settings on record: for pIC50: ADP-Glo; for PKMYT1 vs. WEE1 selectivity: fold difference in selectivity for PKMYT1 over WEE1. The method, boiled down:
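Compounds were pre-dispensed, enzyme (15 nM final) was added in pH 7.5 HEPES buffer, and ATP ([…]) then started a 60 min incubation at 26° C. Afterwards ADP-Glo reagents were added in turn and luminescence was measured to derive IC50 values.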

Setting [1] is: ADP-Glo, 15 nM PKMYT1 kinase domain, 500 µM ATP, 60 minutes at 26° C., banded.
Setting [2] is: 15 nM WEE1, 60 minutes at 26° C., banded.
The mark [3] stands for this setting: banded, ">N" = at least in this band but could be higher.
Where [4] appears, read: PKMYT1 kinase domain 15 nM, ADP-Glo, banded values.

T2 sequence (P30291 whole entry): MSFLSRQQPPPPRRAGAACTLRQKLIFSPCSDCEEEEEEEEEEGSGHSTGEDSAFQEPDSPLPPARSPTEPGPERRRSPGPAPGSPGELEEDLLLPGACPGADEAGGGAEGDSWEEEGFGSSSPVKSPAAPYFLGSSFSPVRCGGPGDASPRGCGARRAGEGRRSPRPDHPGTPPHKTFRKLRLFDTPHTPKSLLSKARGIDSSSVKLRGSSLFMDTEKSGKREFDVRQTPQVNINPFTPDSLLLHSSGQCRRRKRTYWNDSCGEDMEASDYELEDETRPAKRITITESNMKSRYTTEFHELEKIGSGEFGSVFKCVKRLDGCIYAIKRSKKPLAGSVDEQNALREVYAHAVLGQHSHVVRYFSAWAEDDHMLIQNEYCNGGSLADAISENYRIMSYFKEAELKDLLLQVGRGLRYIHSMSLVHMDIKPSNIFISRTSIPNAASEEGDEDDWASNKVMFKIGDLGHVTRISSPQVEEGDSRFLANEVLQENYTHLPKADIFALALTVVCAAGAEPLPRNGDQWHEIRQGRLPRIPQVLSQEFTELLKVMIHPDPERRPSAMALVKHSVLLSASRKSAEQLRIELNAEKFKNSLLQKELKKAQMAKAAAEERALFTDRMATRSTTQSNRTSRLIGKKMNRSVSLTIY

`Cc1ccc(O)c(C)c1NC(=O)c1cnc(Nc2ccn(CC(=O)NCCN3CCOCC3)n2)s1` [BAA-035]: the pIC50 against Human PKMYT1 (setting [1]) was 6.00 to 7.30; on WEE1 (setting [2]), < 4.96. The “PKMYT1 vs. WEE1 selectivity” value on WEE1 (setting [3]) was “X (100-<1000 fold)”.
Take `O=C(Nc1c(Cl)ccc(O)c1F)c1cnc(Nc2ccn(CC(=O)N3CCCC3)n2)s1` [BAA-481, N-(6-Chloro-2-fluoro-3-hydroxy-phenyl)-2-[[1-(2-oxo-2-pyrrolidin-1-yl-ethyl)pyrazol-3-yl]amino]thiazole-5-carboxamide]: the pIC50 was > 7.30 against Human PKMYT1 (setting [4]) and < 4.96 against WEE1 (WEE1 15 nM, banded values). Also, at WEE1 (banded), the “PKMYT1 vs. WEE1 selectivity” value is given as “Y (1000-5000 fold)”.
Taken in the same sequence, the figures for `Cc1ccc(O)c(Br)c1NC(=O)c1cnc(Nc2ccn(C)n2)s1` [BAA-468, N-(2-bromo-3-hydroxy-6-methyl-phenyl)-2-[(1-methylpyrazol-3-yl)amino]thiazole-5-carboxamide] were > 7.30, 4.96 to 6.00 and “X (100-<1000 fold)”.
For `CCCNC(=O)Cn1ccc(Nc2ncc(C(=O)Nc3c(C)ccc(O)c3C)s2)n1` [BAA-197], the pIC50 against Human PKMYT1 (setting [1]) is > 7.30; against WEE1 (setting [2]) it was < 4.96. The “PKMYT1 vs. WEE1 selectivity” value on WEE1 (setting [3]) is given as “Y (1000-5000 fold)”.
With `Cc1ccc(O)c(C)c1NC(=O)c1cnc(Nc2ncccc2Cl)s1` [BAA-400, 2-((3-chloropyridin-2-yl)amino)-N-(3-hydroxy-2,6-dimethylphenyl)thiazole-5-carboxamide], the pIC50 was > 7.30 on Human PKMYT1 (setting [4]) and 4.96 to 6.00 at WEE1 (WEE1 15 nM, banded values). The “PKMYT1 vs. WEE1 selectivity” value at WEE1 (banded) is given as “X (100-<1000 fold)”.
For the compound `COc1cnc(Cl)nc1Nc1ncc(C(=O)Nc2c(C)ccc(O)c2C)s1` [BAA-568, 2-((2-chloro-5-methoxypyrimidin-4-yl)amino)-N-(3-hydroxy-2,6-dimethylphenyl)thiazole-5-carboxamide], the negative-log IC50 (pIC50) on Human PKMYT1 (setting [4]) was > 7.30; at WEE1 (WEE1 15 nM, banded values) it was < 4.96. Besides, the “PKMYT1 vs. WEE1 selectivity” value at WEE1 (banded) is recorded as “X (100-<1000 fold)”.
Regarding `Cc1ccc(O)c(C)c1NC(=O)c1cnc(Nc2ccn(CC(=O)O)n2)s1` [BAA-059, 2-[3-[[5-[(3-hydroxy-2,6-dimethyl-phenyl)carbamoyl]thiazol-2-yl]amino]pyrazol-1-yl]acetic acid], the negative logarithm of the IC50 (pIC50) against Human PKMYT1 (setting [1]) is > 7.30; against WEE1 (setting [2]), < 4.96. The “PKMYT1 vs. WEE1 selectivity” value on WEE1 (setting [3]) is recorded as “X (100-<1000 fold)”.
With `CCC(C(=O)N1CCN(C)CC1)n1ccc(Nc2ncc(C(=O)Nc3c(C)ccc(O)c3C)s2)n1` (stereo not drawn) [BAA-533, N-(3-hydroxy-2,6-dimethylphenyl)-2-((1-(1-(4-methylpiperazin-1-yl)-1-oxobutan-2-yl)-1H-pyrazol-3-yl)amino)thiazole-5-carboxamide], the pIC50 against Human PKMYT1 (setting [4]) is > 7.30; on WEE1 (WEE1 15 nM, banded values), < 4.96. Moreover, the “PKMYT1 vs. WEE1 selectivity” value on WEE1 (banded) was “Y (1000-5000 fold)”.
`Cc1ccc(O)c(C)c1NC(=O)c1cnc(Nc2ncn(C)n2)s1` [BAA-265, N-(3-hydroxy-2,6-dimethylphenyl)-2-((1-methyl-1H-1,2,4-triazol-3-yl)amino)thiazole-5-carboxamide]: the pIC50 is > 7.30 at Human PKMYT1 (setting [1]) and < 4.96 against WEE1 (setting [2]). The “PKMYT1 vs. WEE1 selectivity” value on WEE1 (setting [3]) is reported as “X (100-<1000 fold)”.
For `Cc1nnc(Nc2ncc(C(=O)Nc3c(C)ccc(O)c3C)s2)o1` [BAA-258, N-(3-hydroxy-2,6-dimethylphenyl)-2-((5-methyl-1,3,4-oxadiazol-2-yl)amino)thiazole-5-carboxamide] the same measures were 4.96 to 6.00, < 4.96 and “W (10-<100 fold)”.
Turning to `Cc1ccc(O)c(C)c1NC(=O)c1cnc(Nc2cc(N3CCNCC3)ncn2)s1` [BAA-575, N-(3-Hydroxy-2,6-dimethylphenyl)-2-((6-(piperazin-1-yl)pyrimidin-4-yl)amino)thiazole-5-carboxamide], the pIC50 was > 7.30 against Human PKMYT1 (setting [4]) and 6.00 to 7.30 against WEE1 (WEE1 15 nM, banded values). For the same compound, the “PKMYT1 vs. WEE1 selectivity” value at WEE1 (banded) is recorded as “W (10-<100 fold)”.
For the compound `CCCCCCCNC(=O)Cn1ccc(Nc2ncc(C(=O)Nc3c(C)ccc(O)c3C)s2)n1` [BAA-135], the negative-log IC50 (pIC50) is > 7.30 against Human PKMYT1 (setting [1]) and 4.96 to 6.00 against WEE1 (setting [2]). In addition, the “PKMYT1 vs. WEE1 selectivity” value at WEE1 (setting [3]) is reported as “X (100-<1000 fold)”.
Turning to `Cc1cn(CC(=O)N(C)CC(F)(F)F)nc1Nc1ncc(C(=O)Nc2c(C)ccc(O)c2C)s1` [BAA-514, N-(3-hydroxy-2,6-dimethylphenyl)-2-((4-methyl-1-(2-(methyl(2,2,2-trifluoroethyl)amino)-2-oxoethyl)-1H-pyrazol-3-yl)amino)thiazole-5-carboxamide], the negative logarithm of the IC50 (pIC50) against Human PKMYT1 (setting [4]) is > 7.30; against WEE1 (WEE1 15 nM, banded values), 4.96 to 6.00. The “PKMYT1 vs. WEE1 selectivity” value at WEE1 (banded) is “X (100-<1000 fold)”.
For `Cc1ccc(O)c(C)c1NC(=O)c1cnc(Nc2cc(C)n(C(C)C(=O)N3CCCC3)n2)s1` (stereo not drawn) [BAA-508, N-(3-hydroxy-2,6-dimethylphenyl)-2-((5-methyl-1-(1-oxo-1-(pyrrolidin-1-yl)propan-2-yl)-1H-pyrazol-3-yl)amino)thiazole-5-carboxamide] the same measures were 6.00 to 7.30, < 4.96 and “W (10-<100 fold)”.
Regarding `Cc1ccc(C(=O)Nc2ccc(Nc3ncc(C(=O)Nc4c(C)ccc(O)c4C)s3)nc2)c(C)c1` [BAA-297, 2-((5-(2,4-dimethylbenzamido)pyridin-2-yl)amino)-N-(3-hydroxy-2,6-dimethylphenyl)thiazole-5-carboxamide], the values for the pIC50 on Human PKMYT1 (setting [1]) and on WEE1 (setting [2]) were 6.00 to 7.30 and < 4.96, respectively. Also, at WEE1 (setting [3]), the “PKMYT1 vs. WEE1 selectivity” value is reported as “Y (1000-5000 fold)”.
For `Cc1ccc(O)c(C)c1NC(=O)c1cnc(Nc2ccc(F)cc2F)s1` [BAA-277, 2-((2,4-difluorophenyl)amino)-N-(3-hydroxy-2,6-dimethylphenyl)thiazole-5-carboxamide] the same measures were 6.00 to 7.30, < 4.96 and “X (100-<1000 fold)”.
Take `Cc1ccc(O)c(C)c1NC(=O)c1cnc(Nc2cc(C)n(C3CCS(=O)(=O)C3)n2)s1` (stereo not drawn) [BAA-564, 2-[[1-(1,1-Dioxothiolan-3-yl)-5-methyl-pyrazol-3-yl]amino]-N-(3-hydroxy-2,6-dimethyl-phenyl)thiazole-5-carboxamide]: the pIC50 on Human PKMYT1 (setting [4]) is 6.00 to 7.30; against WEE1 (WEE1 15 nM, banded values), 4.96 to 6.00. For the same compound, the “PKMYT1 vs. WEE1 selectivity” value on WEE1 (banded) was “W (10-<100 fold)”.
Turning to `Cc1ccc(O)c(C)c1NC(=O)c1cnc(NCc2ccn(C)n2)s1` [BAA-348, N-(3-hydroxy-2,6-dimethylphenyl)-2-(((1-methyl-1H-pyrazol-3-yl)methyl)amino) thiazole-5-carboxamide], the negative logarithm of the IC50 (pIC50) against Human PKMYT1 (setting [1]) was 6.00 to 7.30; at WEE1 (setting [2]) it was < 4.96. Moreover, the “PKMYT1 vs. WEE1 selectivity” value on WEE1 (setting [3]) was “X (100-<1000 fold)”.
For `Cc1ccc(O)c(C)c1NC(=O)c1cnc(N)s1` [BAA-001, 2-Amino-N-(3-hydroxy-2,6-dimethyl-phenyl)thiazole-5-carboxamide], the negative-log IC50 (pIC50) is 6.00 to 7.30 against Human PKMYT1 (setting [1]); 6.49 against Human PKMYT1 (PKMYT1 biochemical ADP-Glo enzymatic assay, Comparison Data 1); < 4.96 on WEE1 (setting [2]). Besides, on Human PKMYT1 (vs REF-001), the “improvement in PKMYT1 IC50 as compared to REF-001” value was 163 fold. Moreover, the “improvement in PKMYT1 IC50 as compared to REF-002” value on Human PKMYT1 (vs REF-002) amounted to 82 fold. For the same compound, the “PKMYT1 vs. WEE1 selectivity” value at WEE1 (setting [3]) is recorded as “X (100-<1000 fold)”.
Consider `Cc1cn(-c2cncc(C(F)(F)F)c2)nc1Nc1ncc(C(=O)Nc2c(C)ccc(O)c2C)s1` [BAA-380, N-(3-hydroxy-2,6-dimethylphenyl)-2-((4-methyl-1-(5-(trifluoromethyl)pyridin-3-yl)-1H-pyrazol-3-yl)amino)thiazole-5-carboxamide], for which the pIC50 was 6.00 to 7.30 on Human PKMYT1 (setting [1]) and 4.96 to 6.00 on WEE1 (setting [2]). The “PKMYT1 vs. WEE1 selectivity” value at WEE1 (setting [3]) was “W (10-<100 fold)”.
